Columns and labels:
Rattus norvegicus [1] = test: Anti-inflammatory activity against carrageenan-induced paw oedema in rat assessed as paw thickness at 100 mg/kg measured immediately (reference value: 0.98 +/- 0.03 cm); type: functional
Rattus norvegicus [2] = test: Anti-inflammatory activity against carrageenan-induced paw oedema in albino rat assessed as paw thickness at 100 mg/kg measured at 6 hrs post dose (reference value: 0.92 +/- 0.03 cm); type: functional
[3] = biological target: Prostaglandin G/H synthase 1 (Homo sapiens, UniProt P23219); test: Inhibition of COX1 (unknown origin) using arachidonic acid as substrate pretreated for 10 mins followed by substrate addition measured after 2 mins by enzyme-immunoassay
Sequence of Prostaglandin G/H synthase 1 (P23219 whole entry): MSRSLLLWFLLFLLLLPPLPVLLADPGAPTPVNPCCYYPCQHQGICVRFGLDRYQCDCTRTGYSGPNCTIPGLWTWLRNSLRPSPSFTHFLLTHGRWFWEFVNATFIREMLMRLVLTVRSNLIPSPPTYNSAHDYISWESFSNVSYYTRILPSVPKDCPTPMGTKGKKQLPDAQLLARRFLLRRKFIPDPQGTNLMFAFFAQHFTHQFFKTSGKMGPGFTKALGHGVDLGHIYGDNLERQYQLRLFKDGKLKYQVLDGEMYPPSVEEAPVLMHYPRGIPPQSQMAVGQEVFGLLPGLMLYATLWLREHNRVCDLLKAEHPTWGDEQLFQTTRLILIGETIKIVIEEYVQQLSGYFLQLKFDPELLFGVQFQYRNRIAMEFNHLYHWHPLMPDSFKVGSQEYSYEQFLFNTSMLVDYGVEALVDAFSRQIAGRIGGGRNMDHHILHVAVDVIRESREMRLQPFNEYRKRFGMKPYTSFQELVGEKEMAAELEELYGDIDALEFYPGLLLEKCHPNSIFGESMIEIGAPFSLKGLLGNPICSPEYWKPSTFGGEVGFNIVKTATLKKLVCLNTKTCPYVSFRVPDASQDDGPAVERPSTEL

[4] = biological target: T1, Prostaglandin G/H synthase 2 (Homo sapiens, UniProt P35354); test: Inhibition of COX2 (unknown origin) using arachidonic acid as substrate pretreated for 10 mins followed by substrate addition measured after 2 mins by enzyme-immunoassay
T1 sequence (P35354 whole entry): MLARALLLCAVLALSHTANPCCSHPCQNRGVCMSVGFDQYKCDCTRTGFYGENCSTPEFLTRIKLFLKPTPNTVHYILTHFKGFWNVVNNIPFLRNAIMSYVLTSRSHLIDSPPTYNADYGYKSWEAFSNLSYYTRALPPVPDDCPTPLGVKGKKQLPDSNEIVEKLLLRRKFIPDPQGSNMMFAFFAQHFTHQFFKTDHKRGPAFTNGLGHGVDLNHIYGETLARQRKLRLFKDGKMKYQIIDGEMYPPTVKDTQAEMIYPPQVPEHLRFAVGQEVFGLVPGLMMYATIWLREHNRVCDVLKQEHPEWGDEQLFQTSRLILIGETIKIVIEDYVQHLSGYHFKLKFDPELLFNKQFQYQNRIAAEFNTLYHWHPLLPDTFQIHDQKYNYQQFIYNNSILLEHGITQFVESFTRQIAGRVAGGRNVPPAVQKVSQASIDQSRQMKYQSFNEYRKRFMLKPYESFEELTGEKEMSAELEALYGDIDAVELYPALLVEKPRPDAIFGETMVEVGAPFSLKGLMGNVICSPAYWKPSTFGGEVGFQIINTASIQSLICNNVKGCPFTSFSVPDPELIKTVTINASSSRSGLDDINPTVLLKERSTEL

Rattus norvegicus [5] = test: Analgesic activity in albino rat model of thermal-induced nociception assessed as tail withdrawal latency time at 100 mg/kg, po measured at 120 mins post dose by tail immersion test (reference value: 2.63 +/- 0.15 min); type: functional
Rattus norvegicus [6] = test: Analgesic activity in albino rat model of thermal-induced nociception assessed as tail withdrawal latency time at 100 mg/kg, po measured at 180 mins post dose by tail immersion test (reference value: 2.62 +/- 0.13 min); type: functional
Rattus norvegicus [7] = test: Analgesic activity in albino rat model of thermal-induced nociception assessed as tail withdrawal latency time at 100 mg/kg, po measured at 300 mins post dose by tail immersion test (reference value: 2.58 +/- 0.11 min); type: functional
Rattus norvegicus [8] = test: Analgesic activity in albino rat model of thermal-induced nociception assessed as tail withdrawal latency time at 100 mg/kg, po measured immediately by tail immersion test (reference value: 2.60 +/- 0.14 min); type: functional
Rattus norvegicus [9] = test: Anti-inflammatory activity against carrageenan-induced paw oedema in albino rat assessed as paw thickness at 100 mg/kg measured at 3 hrs post dose (reference value: 0.93 +/- 0.02 cm); type: functional
Rattus norvegicus [10] = test: Analgesic activity in albino rat model of thermal-induced nociception assessed as tail withdrawal latency time at 100 mg/kg, po measured at 240 mins post dose by tail immersion test (reference value: 2.62 +/- 0.13 min); type: functional
Rattus norvegicus [11] = test: Analgesic activity in albino rat model of thermal-induced nociception assessed as tail withdrawal latency time at 100 mg/kg, po measured at 60 mins post dose by tail immersion test (reference value: 2.62 +/- 0.11 min); type: functional
Homo sapiens = species: Homo sapiens; test: Selectivity index, ratio of IC50 for COX1 (unknown origin) to IC50 for COX2 (unknown origin)

| IC50 [3] | IC50 [4] | IC50 ([3]; read-out: IC50) [nM] | IC50 ([4]; read-out: IC50) [nM] | Selectivity Index (Homo sapiens) | SMILES | Activity (Rattus norvegicus [1]) [cm] | Activity (Rattus norvegicus [2]) [cm] | Time (Rattus norvegicus [5]) [min] | Time (Rattus norvegicus [6]) [min] | Time (Rattus norvegicus [7]) [min] | Time (Rattus norvegicus [8]) [min] | Activity (Rattus norvegicus [9]) [cm] | Time (Rattus norvegicus [10]) [min] | Time (Rattus norvegicus [11]) [min] |
| --- | --- | --- | --- | --- | --- | --- | --- | --- | --- | --- | --- | --- | --- | --- |
| Not Active | Not Active |  |  |  | CCOC(=O)C1=C(N)n2c(=O)c3ccccc3c(=O)n2C1c1ccccc1O (stereo not given) | 0.97 | 0.67 | 6.68 | 6.85 | 5.62 | 2.52 | 0.72 | 6.33 | 5.53 |
|  |  | 70.4 | 16.2 | 4.35 | O=C(c1ccccc1O)n1nc(Nc2ccccc2)cc1-c1ccccc1O | 0.97 | 0.55 | 4.05 | 4.18 | 4.22 | 2.47 | 0.63 | 4.07 | 3.95 |
| Not Active | Not Active |  |  |  | Cc1cc(C)n(C(=O)c2ccccc2O)n1 | 0.98 | 0.67 | 5.79 | 4.83 | 4.8 | 2.62 | 0.75 | 5.66 | 6.05 |
|  |  | 82.1 | 151 | 0.54 | CC1=NN(C(=O)c2ccccc2O)C(=O)C1 | 1.02 | 0.67 | 4.78 | 4.7 | 4.4 | 2.48 | 0.77 | 4.67 | 5.52 |
|  |  | 74.4 | 90.1 | 0.83 | CCOC(=O)C1=C(N)n2c(=O)ccc(=O)n2C1c1ccccc1O (stereo not given) | 1.03 | 0.7 | 4.47 | 4.58 | 4.43 | 2.72 | 0.82 | 4.52 | 4.33 |

Continued, molecule first:

| SMILES | IC50 [3] | IC50 [4] | IC50 ([3]; read-out: IC50) [nM] | IC50 ([4]; read-out: IC50) [nM] | Selectivity Index (Homo sapiens) | Activity (Rattus norvegicus [1]) [cm] | Activity (Rattus norvegicus [2]) [cm] | Time (Rattus norvegicus [5]) [min] | Time (Rattus norvegicus [6]) [min] | Time (Rattus norvegicus [7]) [min] | Time (Rattus norvegicus [8]) [min] | Activity (Rattus norvegicus [9]) [cm] | Time (Rattus norvegicus [10]) [min] | Time (Rattus norvegicus [11]) [min] |
| --- | --- | --- | --- | --- | --- | --- | --- | --- | --- | --- | --- | --- | --- | --- |
| O=C(NN1C(=O)C=CC1=O)c1ccccc1O | Not Active | Not Active |  |  |  | 1 | 0.77 | 5.52 | 5.47 | 5.13 | 2.58 | 0.83 | 5.23 | 5.98 |
| O=C(NN1C(=O)c2ccccc2C1=O)c1ccccc1O |  |  | 92.2 | 130 | 0.71 | 0.98 | 0.72 | 5.58 | 6.25 | 7.2 | 2.55 | 0.73 | 6.23 | 5.58 |
| CCOC(=O)C1=C(N)N2C(=O)CCC(=O)N2C1c1ccccc1O (stereo not given) |  |  | 88.1 | 181 | 0.47 | 1.02 | 0.65 | 6.68 | 6.85 | 5.62 | 2.63 | 0.7 | 6.33 | 5.53 |
| O=C(NN1C(=O)c2cccnc2C1=O)c1ccccc1O | Not Active | Not Active |  |  |  | 0.97 | 0.72 | 3.97 | 4.3 | 4.17 | 2.57 | 0.83 | 4.27 | 3.78 |
| O=C([O-])Cc1ccccc1Nc1c(Cl)cccc1Cl.[Na+] [DICLOFENAC SODIUM] |  |  |  |  |  | 1.02 | 0.63 | 4.98 | 4.87 | 3.99 | 2.63 | 0.77 | 4.21 | 6.44 |
| CCOC(=O)C1=C(N)n2c(=O)c3ncccc3c(=O)n2C1c1ccccc1O (stereo not given) |  |  | 66.7 | 20.1 | 3.32 | 0.98 | 0.62 | 5.53 | 5.75 | 4.08 | 2.55 | 0.68 | 5.25 | 5.83 |
| O=C(NN1C(=O)CCC1=O)c1ccccc1O | Not Active | Not Active |  |  |  | 1 | 0.62 | 4.98 | 4.85 | 5.78 | 2.42 | 0.73 | 5.28 | 5.02 |
| O=C(/C=C/c1ccccc1O)Nc1ccccc1 |  |  |  |  |  | 1.02 | 0.65 | 4.12 | 4.18 | 3.97 | 2.63 | 0.83 | 3.92 | 3.78 |
